# In patent publication US20140005255A1, “Agonists Of Toll Like Receptor For Treating Cardiovasuclar Disease And Obesity” (priority 2010, published 2014):
# What was measured:
# TLR8 = conditions: cited from earlier work
# [1] = test system: mixed human atheroma cell culture; test: IFNα production (ELISA) in mixed cell type atheroma cell culture; format: cell-based; conditions: 1 μM, 24 hours
# Method: Carotid endarterectomies from patients undergoing surgery for carotid disease were obtained at Charing Cross Hospital, London. The protocol was approved by the Research Ethics Committee RREC2989. All patients gave written informed consent, according to the Human Tissue Act 2004 (UK). Single cell suspensions of mixed cell types were obtained via enzymatic digestion and cultured for 24 hours as previously described (18).
# SMC were cultured in 50 cm^2 tissue culture dishes and grown until near confluence. AthSMC and AoSMC were serum starved for 24 hours and then cultured in DMEM either alone or in the presence of 10 ng/ml IL1a, 100 ng/ml Pam3Cys, 100 ng/ml FSL-1 (Pam2CGDPKHPKSF), 25 μg/ml Poly(I:C), 100 ng/ml Lipopolysaccharide (LPS), 1 μg/ml R837 (Imiquimod) and 1 μg/ml PolyU (all purchased from Invivogen). […] The concentrations used were selected on the basis of dose-response experiments as the dose with maximal effect in absence of cell death monitored via MTT.
# (§1) Cytokine production in supernatants of AthSMC and AoSMC were measured by ELISA using IL-6, IL-8 and CCL2/MCP-1 (Pharmingen, UK). IFNα was detected via a high sensitivity ELISA kit from R&D Systems. Each condition was tested in triplicate and each triplicate was analyzed separately. Concomitantly, viability was monitored with the use of 3-(4,5-dimethyl[…])-2,5-diphenyltetrazolium (MTT) (Sigma, UK).
# [2] = test system: human atheroma-derived smooth muscle cells (AthSMC); test: Cytokine production (ELISA) by SMC stimulated with TLR agonists for 24 hours, AthSMC compared to AoSMC; format: cell-based; conditions: 24 hours stimulation
# Method: AthSMC were isolated from the mixed atheroma cells via magnetic cell sorting (Miltenyi, MACS), utilizing anti-CD45 (pan-leukocyte marker) and anti-CD31 (endothelial cells) antibodies coupled to microbeads. SMC expressing SMC-alpha actin composed >90% of the cells. Control AoSMC were purchased from Promocell (Germany). Both SMC types were grown in SMC medium (Promocell, Germany) and used at passage 3 consistently in all experiments. The protocols of stimulation with TLR ligands are described below.
# SMC were cultured in 50 cm^2 tissue culture dishes and grown until near confluence. AthSMC and AoSMC were serum starved for 24 hours and then cultured in DMEM either alone or in the presence of 10 ng/ml IL1a, 100 ng/ml Pam3Cys, 100 ng/ml FSL-1 (Pam2CGDPKHPKSF), 25 μg/ml Poly(I:C), 100 ng/ml Lipopolysaccharide (LPS), 1 μg/ml R837 (Imiquimod) and 1 μg/ml PolyU (all purchased from Invivogen). Cells were serum starved for 24 h prior to stimulation with the indicated agonists. Supernatants were collected 24 hours after stimulation and frozen at −80° C. for batch analysis via ELISA. In the experiments performed on the mixed human atheroma cell culture, cells were cultured immediately after isolation at 10^6 cells per milliliter in RPMI containing 5% fetal bovine serum (Biosera, UK) in the presence or absence of 25 μg/ml Poly(I:C), 1 μM CpG ODN2006 and 1 μM CpG ODN2006 control (Invivogen) for 24 and 48 hours. The concentrations used were selected on the basis of dose-response experiments as the dose with maximal effect in absence of cell death monitored via MTT.
# as §1
# AthSMC and AoSMC [3] = test: TLR3 gene expression by Q-PCR in stimulated SMC; format: cell-based, human; conditions: 5 hours
# Method: Alternatively, AoSMc and AthSMC were stimulated with 25 μg/ml Poly(I:C) or interferon α (IFN α) at 10 ng/mL or IFNy at 10 ng/mL. Total RNA was extracted as before and TLR3 gene expression was quantified via Q-PCR with TaqMan® Gene Expression Assays (Hs01551078_m1*; Applied Biosystems Inc.).
# TLR3−/− mice = test: Perivascular collar injury: elastic lamina breaks; format: in vivo; conditions: systemic administration 250 μg i.p.
# Method: (§2) At 22 weeks of age, male C57BL/6 and TLR3^−/− mice were anesthetized with isofluorane by inhalation, the left carotid artery dissected and a non-occlusive tygon collar (length 2.5 mm; internal bore diameter, 510 μm, Cole-Parmer, London, UK) placed around the carotid artery. Mice received 250 μg Poly(I:C) (Sigma, Dorset, UK) or PBS intraperitoneally on alternate days for a total of 8 doses starting 4 days after surgery. Twenty-one days following collar placement, mice were euthanized, and neointima development and the presence of elastic lamina breaks were assessed as described below.
# Elastin-stained slides were also used to assess the integrity of the elastic laminae. The portion of the carotid artery distal to the collar (the same as used for neointima assessment) was divided into 5 segments and representative sections from each segment were evaluated for the presence of interruptions in the elastic lamina. The width of any observed break was measured by drawing a line between the start and end of a break in the external elastic lamina using ProgRes CapturePro image analysis software (version 2.5.2.0, Jenoptik). The width of any elastic lamina break was calculated as the mean width of break across all sections examined for each mouse. […]
# [4] = test system: C57BL/6, ApoE−/− and TLR3−/− mice; test: Vascular gene expression (quantitative RT-PCR) 24 hours after a single i.p. dose of Poly(I:C); format: in vivo
# Method: FIG. 2 Aortic gene expression of both pro- and anti-inflammatory factors is induced by Poly(I:C) stimulation. 10- and 30-week old C57BL/6, ApoE−/− and TLR3−/− mice were stimulated with PBS or 250 μg Poly(I:C) in PBS. 24 hours post-stimulation, mice were sacrificed, aortas harvested and RNA extracted. Gene expression of CCL5 (A), IL-10 (B), VCAM-1 (C) and IFNβ (D) was examined by quantitative RT-PCR. Bars show overall mean±SEM (n=3-5 mice per group; *p<0.05, **p<0.01, ***p<0.001 PBS v. Poly(I:C); unpaired student's t-test).
# (§3) Total RNA was isolated from murine tissues using the Qiagen RNeasy kit (Qiagen, Crawley, UK) according to the manufacturer's instructions. Total RNA was treated with DNase I and reverse-transcribed to cDNA using M-MLV Reverse Transcriptase RNase H-, Point Mutant (Promega, UK) and oligo(dT) primer. RT-PCR was performed using TaqMan Gene Expression Assays (CCL5 (Mm01302427_m1), VCAM1 (Mm01320970_m1), CCL2 (Mm00441242_m1), TLR3 (Mm01207403_m1), IL-10 (Mm01288386_m1), PD-L1 (Mm00452054_m1*), PD-L2 (Mm00451734_m1*) IFNβ (Mm00439552_s1*), (Applied Biosystems) and TaqMan universal PCR Master Mix (Applied Biosystems) on a 7900HT Fast Real-Time PCR System (Applied BioSystems). PCR amplification was carried out for 40 cycles. Samples were normalized to β-actin. The 2-ΔΔCt method was used to analyze the relative changes in gene expression.
# AthSMC and AoSMC [5] = test: Atherosclerosis RT2 Profiler PCR Array gene expression in SMC stimulated with Poly(I:C) for 5 hours; format: cell-based, human; conditions: 25 μg/ml
# Method: SMCs were plated in 9.6 cm^2 dishes and grown until near confluence. SMCs were serum starved for 24 h prior to stimulation with 25 μg/ml Poly(I:C) for 5 hours. Total cellular RNA was extracted from SMC using RNeasy® Mini Kit (Qiagen) according to the manufacturer's instructions. To remove any residual genomic DNA, RNA samples were treated with DNase (TurboDNase, Ambion) according to manufacturer's instructions. RNA was reverse transcribed to cDNA using M-MLV Reverse Transcriptase (Promega, UK). Quantitative PCR (QPCR) analysis of 84 atherosclerosis related genes was performed using Atherosclerosis RT2 Profiler PCR Arrays (SA Bioscience Corporation, USA) as per the manufacturer's protocol. The complete list of the genes analyzed is available online at http://www.sabiosciences.com/rt_per_product/HTML/PAHS-038A.html. RT2 Profiler PCR arrays were run on an ABI 7900HT machine (Applied Biosystems). Duplicate arrays were run per condition for unstimulated and Poly (I:C)-stimulated AoSMC and AthSMC. Data analysis was performed using the manufacturer's integrated web-based software package for the PCR Array System using Ct based fold-change calculations.
# C57BL/6 and TLR3−/− mice = test: Perivascular collar injury: neointima formation (intima/media ratio); format: in vivo
# Method: as §2
# […] following collar placement, mice were euthanized, terminal blood collected via cardiac puncture and the vasculature perfused with 0.9% saline. Injured carotids were dissected out and frozen at −80° C. in Optimal cutting temperature (OCT) compound (ThermoScientific, Runcorn, UK). Sham-operated contralateral arteries were used as controls. Mice were fed regular chow throughout the duration of the experiment.
# For the injured carotid artery, serial 5 μm cryosections were taken of the carotid tissue distal to the collar. Five sections were collected on each slide and 15 to 25 slides were collected per arterial segment. The first five alternate slides were stained with Accustain elastic stain kit (Sigma) according to manufacturer's instructions. Measurement of lesion and vessel areas was performed on one section per stained slide using ProgRes CapturePro image analysis software (version 2.5.2.0, Jenoptik, Germany). The area between the internal and external elastic […] was taken as the medial area and the intimal area was calculated by subtracting the lumen area from the internal elastic lamina area. The intimal medial ratio (IMR) was then calculated by dividing the intimal area by the medial area. The IMR measurements were then averaged for each mouse.
# C57BL/6 mice = test: Gene expression in aortas and lymphoid tissues after chronic Poly(I:C) stimulation for 3 weeks; format: in vivo; conditions: chronic stimulation 3 weeks
# Text: FIG. 10 Gene expression of anti-inflammatory factors is increased in aortas and lymphoid tissues in C57BL/6 mice treated with Poly(I:C) Aortas, spleens and para-aortic lymph nodes (PALN) of C57BL/6 mice that underwent carotid artery injury and PBS or Poly(I:C) treatment were collected at sacrifice. RNA was extracted and gene expression of CCL5, IFNβ, PD-L1, PD-L2, and IL-10 in the aorta (A), spleen (B) and PALN(C) was examined by RT-PCR. Bars show overall mean±SEM (n=4 mice per group, *p<0.05, **p<0.01 PBS v. Poly(I:C); unpaired student's t-test). Abbreviations: IFNβ: Interferon beta, IL-10: Interleukin-10, PD-L1: programmed death-ligand 1, PD-L2: programmed death-ligand 2.
# as §2, §3
# [6] = Poly(I:C) 25 μg/ml, FSL-1 100 ng/ml
# [7] = single dose 250 μg i.p., 24 hours
compound,measurement,setting,value
CCCc1nc2c(N)nc3ccccc3c2s1 [CL075],Agonist strength for TLR8 relative to TLR7,TLR8,~10 ×
CCCCNc1nc(N)c2[nH]c(=O)n(Cc3ccc(C(=O)NCC(=O)O)cc3)c2n1 [CL264],TLR8 activation / stimulation,TLR8; CL264: even at high concentrations (>10 mg/ml),does not stimulate TLR8
CpG ODN2006,IFNα production,[1],Type I interferons are produced in the mixed cell culture population in response to TLR9 stimulation
FSL-1,"IL-6 expression, AthSMC compared to AoSMC",[2]; [6],enhanced response
same,"IL-8 expression, AthSMC compared to AoSMC",[2]; [6],enhanced response
IFNα,TLR3 gene expression,"AthSMC and AoSMC [3]; AoSMC and AthSMC, IFN 10 ng/mL",able to increase the expression of TLR3
Polyriboinosinic-polycytidylic acid [Poly(I:C)],"Elastic lamina breaks (frequency, depth and width)",TLR3−/− mice,"reduced the frequency, depth and width of the elastic lamina breaks"
same,Gene induction in aorta of ApoE−/− mice with advanced disease compared to young ApoE−/−,[4]; 30-week vs 10-week old ApoE−/− mice,more pronounced
same,Gene induction in carotid artery tissue compared to aorta,"[4]; CCL5, CCL2, VCAM1, single dose 250 μg",even more marked
same,Expression of the induced genes in TLR3−/− mice,"[4]; TLR3−/− mice, single dose 250 μg",almost abrogated
same,A20 induction,"[4]; mice, single dose 250 μg i.p.",A20 induction was not observed
same,Aortic expression of CCL2/MCP-1,[4]; [7],induced the aortic expression
same,Aortic expression of CCL5/RANTES,[4]; [7],induced the aortic expression
same,Aortic expression of IFNβ,[4]; [7],induced the aortic expression
same,Aortic expression of IL-10,[4]; [7],induced the aortic expression
same,Aortic expression of PD-L2,[4]; [7],induced the aortic expression
same,Aortic expression of VCAM-1,[4]; [7],induced the aortic expression
same,"TLR3 gene expression in vascular tissues (aorta, carotid arteries)","[4]; single dose 250 μg, 24 hours",up-regulated TLR3 gene expression
same,"Expression of selected genes of inflammatory cell recruitment (e.g. VCAM1, CCL5) and regulation of inflammation (e.g. A20, BIRC3/cIAP)",AthSMC and AoSMC [5],significantly increased the expression
same,"Neointima formation, intima/media ratio, compared to vehicle","C57BL/6 and TLR3−/− mice; C57BL/6 mice, 250 μg i.p., 21 days after injury, p<0.001",significantly reduced
same,Protection against neointima formation,"C57BL/6 and TLR3−/− mice; TLR3−/− mice, 250 μg i.p., p>0.05",ablated
same,End-weight of mice,"C57BL/6 and TLR3−/− mice; all groups, Poly(I:C) or vehicle",No difference
same,TLR3 gene expression,"AthSMC and AoSMC [3]; AoSMC, 25 μg/ml",not in AoSMC
same,TLR3 gene expression,"AthSMC and AoSMC [3]; AthSMC, 25 μg/ml",able to upregulate the expression of TLR3
same,"TLR3 dependent response in AthSMC compared to AoSMC (fold change in IL-6 production, FIG. 1B)",[2]; 25 μg/ml,over 40 fold
same,"CCL2/MCP-1 expression, AthSMC compared to AoSMC",[2]; [6],enhanced expression
same,"IL-6 expression, AthSMC compared to AoSMC",[2]; [6],enhanced expression
same,"IL-8 expression, AthSMC compared to AoSMC",[2]; [6],enhanced expression
same,Expression of CCL5 in the aorta,C57BL/6 mice,significantly increased
same,Expression of IFNβ in the aorta,C57BL/6 mice,significantly increased
same,Expression of IFNβ mRNA in the spleen,C57BL/6 mice,induced
same,Expression of IL10 in the aorta,C57BL/6 mice,significantly increased
same,Gene expression of PD-L1 in the para-aortic lymph nodes,C57BL/6 mice,induced
same,Gene expression of PD-L2 in the para-aortic lymph nodes,C57BL/6 mice,induced
